Test results from US20240254135A1, “POLYPHENOL COMPOUNDS” (Epirium Bio Inc., priority 2022, published 2024).

Target: T1, mitochondrial ATP synthase (Mus musculus, UniProt P56480+Q03265)
T1 construct: from tissue; host or cells: mouse heart, isolated mitochondria (fresh or frozen)
Assay: ATP synthesis (oxygen consumption, Seahorse XF96) in fresh heart mitochondria
Assay type: biochemical
Description: To assess whether the fraction of synthetic and reverse hydrolytic activities of mitochondrial ATP synthase can be measured in the same preparation, a protocol was developed to monitor changes in oxygen consumption and proton release in response to changes in mitochondrial ATP synthase activity. The proton released and the concomitant changes in the pH can be monitored using the ECAR (extracellular acidification) channel in the Agilent Seahorse XF analyzer using isolated mitochondria, to ensure that the changes in pH cannot be attributed to glycolysis or other contributors to ECAR.
Mice were anesthetized with isoflurane followed by a cervical dislocation, and the heart was immediately removed and placed in ice cold relaxation buffer (5 mM sodium pyrophosphate, 100 mM KCl, 5 mM EGTA, 5 mM HEPES; pH 7.4). The heart was squeezed with tweezers to remove blood, minced with scissors, and then placed in a glass-glass Dounce homogenizer with 3 mL of HES homogenization buffer (250 mM sucrose, 5 mM HEPES, 1 mM EDTA; pH to 7.2, adjusted with KOH). The heart tissue was homogenized first with the loose pestle and followed by the tight pestle. The homogenized tissue was placed in a pre-chilled 15 ml conical tube and centrifuged at 900×g (4° C.) for 10 minutes (min). The supernatant was removed, placed in a new tube and centrifuged again at 900×g for 10 min. The supernatant was then transferred to 2 mL microcentrifuge tubes and centrifuged at 10,000×g (4° C.) for 10 min. The mitochondrial pellets were re-suspended in ice cold HES buffer and mitochondrial protein was measured with a BCA assay (Pierce). The concentrated mitochondrial pellet was stored on ice.
Heart mitochondria (0.75-1.5 μg) were loaded into a Seahorse XF96 microplate in 20 μL of MAS (70 mM Sucrose, 220 mM Mannitol, 5 mM KH2PO4, 5 mM MgCl2, 1 mM EGTA, 2 mM HEPES; pH 7.2) plus 1% free fatty acid BSA containing substrates. The loaded plate was centrifuged at 2,000×g for 5 min at 4° C. […]
Oxygen consumption was measured in isolated fresh intact mitochondria from mouse heart, as oxygen consumption is linked to maximal ATP synthesis and proton release when mitochondria are respiring either in the presence of substrates and ADP (ATP synthesizing mitochondria or state 3) or in the presence of substrates but not ADP (state 4). […]
OCR and ECAR were measured in a Seahorse XF96 analyzer under basal conditions as well as after injection of 2 μM oligomycin, two sequential additions of 1.5 μM FCCP, followed by 1 μM rotenone with 2 μM antimycin A. Respiratory parameters were calculated according to standard protocols, and all rates were corrected for non-mitochondrial respiration/background signal by subtracting the oxygen consumption rate insensitive to rotenone plus antimycin A.

Measured: change in ATP synthesis

Oc1ccc2c(c1)OC(c1ccc(O)c(C(F)(F)F)c1)C(O)C2 (single isomer, unassigned) [Compound 77b, 2-(4-hydroxy-3-(trifluoromethyl)phenyl)chromane-3,7-diol]
no change: Complex I substrates, fresh mitochondria | Complex II substrates, fresh mitochondria | fresh heart mitochondria (FIG. 1, FIG. 2)
